“Also recorded” adds a separate entry of the source.
Tests used:
[1] = Open-label study: PK sampling, plasma concentrations; type: in vivo, human; conditions: Day 7 and Day 14; 3 mg once daily oral with a meal
Excerpt: (§1) Additional objectives of the study were to assess the following: • PK profile of Compound 1 following administration of multiple doses as assessed by periodic PK sampling • Change from baseline on tests of executive function. • Change from baseline on tests of learning and memory. • Verbal Recognition Memory • Paired Associates Learning • Pattern Recognition Memory • Spatial Span • Change from baseline on tests of social cognition. • Emotion Recognition Task • Emotion Bias Task • Change from baseline on tests of psychomotor function. • Change from baseline on assessments of neuropsychiatric symptoms: • Change from baseline in performance on the Montreal Cognitive Assessment • Change from baseline in Clinical Global Impressions-Severity scores • Overall scores on Clinical Global Impressions-Improvement scales • Change from baseline in Amsterdam Instrumental Activities of Daily Living • Change from baseline in exploratory peripheral biomarkers • Amyloid PET Scan

[2] = tested on: participants with MCI or mild dementia due to AD; assay: Open-label study: tests of executive functioning (MTT, OTS, SWM, DSST, 2-Back); type: in vivo, human
Excerpt: as §1
The tests of Executive Functioning included (1) Multitasking Test (MTT), which assesses how well the subject manages conflicting information; (2) One Touch Stockings of Cambridge (OTS), which assesses how well the subject plans, holds onto, and manipulates information to solve a puzzle; (3) Spatial Working Memory (SWM), which assesses how well the subject develops and uses a strategy to find hidden information; (4) Digit Symbol Substitution Task (DSST), which assesses how efficiently can the subject complete a demanding task (daily measure); and (5) Two-Back Test (NBX), which asks is the symbol the same as that shown two symbols ago.

[3] = tested on: participants with MCI or mild dementia due to AD; assay: Open-label study: tests of learning and memory (PAL, PRM, VRM, Spatial Span); type: in vivo, human
Excerpt: as §1
The tests of Learning and Memory included Paired Associates Learning (PAL), which assesses how well the subject remembers the location of hidden objects; Pattern Recognition Memory (PRM), which assesses how well the subject remembers a pattern; and Verbal Recognition Memory […], which assesses how well the subject stores and retrieves verbal information.

[4] = tested on: participants with MCI or mild dementia due to AD; assay: Open-label study: tests of attention and psychomotor performance (RTI, PVT); type: in vivo, human; conditions: 3 mg once daily oral for 14 days
Excerpt: as §1
The tests of Attention and Psychomotor Performance included Reaction Time (RTI), which assesses how fast the subject can respond to a stimulus (weekly measure); Psychomotor Vigilance Task (PVT), which assesses how fast can the subject respond to a stimulus (daily measure).

[5] = tested on: participants with MCI or mild dementia due to AD; assay: Open-label study: global cognition, Montreal Cognitive Assessment (MoCA); type: in vivo, human; conditions: 3 mg once daily oral for 14 days
Excerpt: as §1

[6] = tested on: participants with MCI or mild dementia due to AD; assay: Open-label study: safety and tolerability (TEAEs, laboratory, vital signs, ECG); conditions: 3 mg once daily oral for 14 days
Excerpt: The Study comprised a 2-week screening period, a 1-week baseline period, a 2-week open-label treatment period, and a 2-week follow-up period. […] During the 1-week pre-treatment baseline period, patients underwent repeated cognitive testing using a comprehensive battery of tests to establish a robust cognitive baseline across multiple domains of cognitive function.
The key inclusion criteria for the subjects were as follows: • Be between the ages of 50 and 80 years, inclusive, at Screening • Meet the following criteria for MCI or mild dementia due to AD at Screening: • A memory complaint reported by the participant or his/her study partner • A CDR score of 0.5 to 1.0 (inclusive) with a memory box score ≥0.5 • Essentially preserved activities of daily living, in the opinion of the investigator. • Brain MRI report, obtained within the 2 years preceding the Baseline Period, that is consistent with the diagnosis of AD-MCI with no clinically significant findings of non-AD pathology that could account for the observed cognitive impairment • Have a score of 15 to 24 (inclusive) on the MoCA at Screening • Have an estimated premorbid IQ≥85 (as assessed by the Test of Premorbid Functioning, performed at Screening
The Primary objective of the study was to assess (1) the incidence of Treatment-Emergent Adverse Event (TEAE).
The secondary objectives of the study were to assess: • the percentage of Participants With Clinically Significant Changes in Vital Sign Measurements, clinical laboratory analytes, electrocardiograms (ECGs), and responses on the Columbia-Suicide Severity Rating Scale (C-SSRS).

[7] = 3 mg once daily oral for 14 days, change from baseline, Clinic/Weekly

Structure (SMILES): C[C@H](CC[C@](C)(O)C(F)(F)F)[C@H]1CC[C@H]2[C@@H]3CC=C4C[C@@](C)(O)CC[C@]4(C)[C@H]3CC[C@]12C [Compound 1]
- Plasma concentrations versus predicted range [1]: consistent with the predicted range
- 2-Back Test, Directional Trend [2, 7]: numerical improvement
- Multitasking, Directional Trend [2, 7]: numerical improvement
- One Touch Stockings, Directional Trend [2, 7]: numerical improvement
- Spatial working Memory, Directional Trend [2, 7]: numerical improvement
- Digit Symbol Substitution, Directional Trend ([2]; 3 mg once daily oral for 14 days, change from baseline, Mobile/Daily): numerical improvement
- Performance from baseline on all tests of executive functioning ([2]; Day 14, 3 mg once daily oral): improved performance
- Paired Associates Learning, Directional Trend [3, 7]: no change (or slight worsening); also recorded: Mixed
- Pattern Recognition Memory, Directional Trend [3, 7]: numerical improvement
- Spatial Span, Directional Trend [3, 7]: no change (or slight worsening); also recorded: Mixed
- Verbal Recognition Memory, Directional Trend [3, 7]: Improvement
- Performance on tests of learning and memory ([3]; Day 14 vs baseline, 3 mg once daily oral): additional signals suggesting improved performance
- Changes in attention or psychomotor processing [4]: No changes
- Reaction Time, Directional Trend ([4]; change from baseline, Clinic/Weekly): No Change
- Psychomotor Vigilance Task, Directional Trend ([4]; change from baseline, Mobile/Daily): No Change
- MoCA (Global), Directional Trend ([5]; change from baseline, Monthly): Improvement
- MoCA score, mean CFB (change from baseline) ([5]; CFB at Day 28, n = 20): 2.3
- MoCA score, mean ([5]; Day 28, n = 20, baseline mean 20.5): (22.8
- Improvement in global cognition, assessed via MoCA ([5]; statistically significant): +2.3 pts
- Clinically significant laboratory abnormalities ([6]; 26 enrolled subjects): No clinically significant laboratory abnormalities
- Clinically significant vital sign or ECG abnormalities ([6]; 26 enrolled subjects): No clinically significant vital sign or ECG abnormalities
- Number of TEAEs ([6]; 26 enrolled subjects): 8
- Severe TEAEs, SAEs, or deaths ([6]; 26 enrolled subjects): No severe TEAEs, SAEs, or deaths
- TEAEs resulting in study drug discontinuation or withdrawal from the study ([6]; 26 enrolled subjects): No TEAEs resulted in study drug discontinuation or withdrawal from the study
- Mild TEAEs, n (%) ([6]; of 8 TEAEs): 4 (50%)
- Moderate TEAEs, n (%) ([6]; of 8 TEAEs): 4 (50%)
- Number of TEAEs considered related to study treatment ([6]; of 8 TEAEs): 6
- Number of subjects who experienced TEAEs ([6]; of the 26 enrolled subjects): 7

Source: US20250319105A1, “NEUROACTIVE STEROID FOR THE TREATMENT OF ALZHEIMER'S DISEASE” (SAGE THERAPEUTICS, INC., priority 2021, published 2025)
